In this test the target is glucose-6-phosphate dehydrogenase-6-phosphogluconolactonase (Plasmodium falciparum 3D7). Kind of test: PfG6PD inhibitor potency, dose response, biochemical, fluorescence intensity (AID 504765). The note with it: Recombinant PfG6PD enzyme, fluorescence intensity (NADPH).

Broadly, the pIC50 is the IC50 on a negative log10 scale, so that one unit is a factor of ten. The IC50 is the concentration needed to halve the response being measured.

pIC50: −log10 of the molar value. Calls of active or inactive are those of the source. No rule for the calls is given here.

Regarding `O=S(=O)(Nc1cc(Sc2cccc3cccnc23)c(O)c2ccccc12)c1ccc(F)cc1`, the pIC50 is 5.91. `O=c1c2ccccc2sn1-c1ccc(Cl)cc1Cl`: the pIC50 was 5.40.

Turning to `NC1CCc2cc(O)c(O)cc2C1` (stereo not given), the IC50 entry was “inactive”.

Turning to `COc1ccc2ccccc2c1C1CC(=O)N2CN(C3CCCCC3)CSC2=C1C#N` (stereo not given), the pIC50 was 4.83.

`Cc1ccc(Nc2cc(C)c(O)c(C)c2)cc1`: the pIC50 is 5.21. On to `O=C(Cn1sc2ccccc2c1=O)Nc1ccc(Cl)cc1`, for which the pIC50 is 5.49. Consider `O=c1[nH]sc2cc(F)ccc12`, for which the pIC50 is 5.01.

As for `c1cncc(CNc2ccc3c(c2)OCO3)c1`, the pIC50 was 4.86.

For the molecule `Nc1ccc2c3c(cccc13)-c1ccccc1-2`, the IC50 entry was “inactive”. For `COc1cc(SSc2cc(OC)cc([N+](=O)[O-])c2N)c(N)c([N+](=O)[O-])c1`, the pIC50 is 5.38. As to `CC1(C)CN(c2ccccc2)N(C(=O)c2ccc(C#N)cc2)C1=O`, the pIC50 is 5.03. Take `CCn1c(=O)n(CC)c2cc(N3CCCC3)c(NC(=O)c3cccc(C)c3)cc21`: the IC50 result was “inactive”. For the molecule `COc1ccccc1N1C(=O)C=C(Sc2nc(C)cc(C)n2)C1=O`, the pIC50 is 5.14. Consider `CCC(C)c1ccccc1OCCn1ccnc1` (stereo not given), for which the pIC50 was 5.47. On to `CCOC(=O)c1c(C2COc3ccccc3O2)csc1NC(=O)c1ccco1` (stereo not given), for which the pIC50 is 4.85. With `COc1cc(NCc2ccccc2)c2ncn(C(C)C)c2c1`, the IC50 result was “inactive”. Take `O=C(COc1cccc2ccccc12)Nc1ccc(Cl)cc1C(=O)O`: the pIC50 was 4.87. With `COc1ccc(S(=O)(=O)Nc2cc(SCC(=O)O)c(O)c3ccccc23)cc1`, the pIC50 is 5.69. For `C=CCN1CCc2cccc3c2[C@H]1Cc1ccc(O)c(O)c1-3`, the pIC50 is 4.71. On to `Cc1ccc(NC(=O)c2cc(N3C(=O)C=CC3=O)ccc2N2CCOCC2)cc1`, for which the pIC50 was 4.80. In the case of `COc1cc(N=c2ssnc2Cl)c(OC)cc1Cl`, the pIC50 is 4.87. The same measure, in the same setting: next, `O=C(Nc1nnc(C2CC2)s1)c1ccc(Cl)nc1`: 5.38. `COc1cccc(-c2c(C(=O)N/N=C/c3ccc(C)o3)nnn2-c2nonc2N)c1`: the pIC50 is 4.88. The same measure, in the same setting: next, `COc1cc(CNc2ccc(N3CCCC3)cc2)cc(Cl)c1OC`: 5.44. On to `CC(C)Nc1ccc(Nc2ccccc2)cc1`, for which the pIC50 is 4.92. With `Cn1c(-c2sccc2OCc2cccc(C(F)(F)F)c2)n[nH]c1=S`, the IC50 entry was “inactive”.

Consider `ClC(Cl)(c1nnnn1-c1ccccc1)c1nnnn1-c1ccccc1`, for which the pIC50 is 5.42. As for `NS(=O)(=O)c1ccc(-c2ccc(C=C3C(=O)NC(=O)NC3=O)o2)cc1`, the pIC50 was 5.50. With `CCCN1CCc2cc(O)cc3c2[C@H]1Cc1ccc(O)c(O)c1-3`, the pIC50 is 4.97. In the case of `CCC1(CC)Cc2ccccc2C(N)=C1C#N`, the IC50 result was “inactive”.

`O=C1C(=Cc2cccc(O)c2O)SC(=S)N1CCCN1CCOCC1`: the pIC50 is 4.85. With `O=c1c2cc(C(F)(F)F)ccc2sn1-c1ccccc1`, the pIC50 was 5.41.

Regarding `COc1cc(/C=C2\SC(c3ccc(C)cc3)=NC2=O)ccc1O`, the pIC50 is 5.06. `CCOc1cc(NCc2ccccc2)c2ncn(C(C)C)c2c1`: the IC50 was > 80 µM (inactive). The same measure, in the same setting: for `COc1cccc(CNc2ccc3[nH]c(=O)[nH]c3c2)c1OCc1ccc(F)cc1` the value was “inactive”. With `Cc1ccc(-c2csc(NC(=O)c3ccc(Br)cc3)c2C(=O)O)cc1`, the pIC50 is 5.20. Take `O=c1c2ccccc2sn1-c1ccccc1`: the pIC50 is 5.94. As to `COc1ccc(N2CSC3=C(C#N)C(c4cc(OC)c(OC)cc4OC)CC(=O)N3C2)c(OC)c1` (stereo not given), the pIC50 is 5.50. Still for that read-out and setting: for `COc1ccc(C2(CNC(=O)c3ccc(OC)c([N+](=O)[O-])c3)CCCCC2)cc1OC` the value was 5.08; for `O=C1C=CC(=O)N1c1ccc(-c2nc3ccccc3o2)cc1`, 4.90; for `CC1=C(O)C(=O)C=C2C1=CC=C1C2(C)CCC2(C)C3CC(C)(C(=O)O)CCC3(C)CCC12C` (stereo not given), 4.78.

Take `COc1ccc(C(=O)Nc2cc(Cl)ccc2C(=O)O)cc1`: the pIC50 is 4.82. `CCOC(=O)c1sc(NC(=O)CSc2nnc(Cc3ccccc3)o2)c(C#N)c1C`: the IC50 result is “inactive”. As to `Cc1ccc(S(=O)(=O)N(C)C)cc1NC(=O)CSc1nc2ncc(Cl)cc2[nH]1`, the pIC50 is 4.92. For `COCc1cc(=O)n2[nH]c(C(C)(C)C)cc2n1`, the pIC50 was 4.85. Same read-out and setting: next, `O=C(Nc1ccc(N2CCOCC2)c(Cl)c1)c1ccc(Cl)cc1`: 5.31. For the molecule `COC(=O)[C@H](CCSC)NC(=O)c1cc2c(cn1)[nH]c1ccccc12`, the IC50 entry was “inactive”. With `Cc1cc(=O)[nH]c(N/N=C/c2c(C)nn(-c3ccccc3)c2Cl)n1`, the pIC50 was 5.07. As for `C[C@]12CC[C@@H]3c4ccc(O)c(O)c4CC[C@H]3[C@@H]1CC[C@@H]2O`, the pIC50 is 5.40. As for `Cc1ccc(SC2=C(Sc3ccc(C)cc3)C(=O)c3ccccc3C2=O)cc1`, the pIC50 was 4.96. Same read-out and setting: next, `CC1=CC(C)(C)Nc2ccc(OC(=O)CN3C(=O)CCC3=O)cc21`: 4.92. Turning to `Cc1cc(O)c(C(C)C)cc1N=Cc1ccc([N+](=O)[O-])cc1`, the pIC50 was 5.16. Still for that read-out and setting: for `CCn1c([N+](=O)[O-])nc2c1c(=O)[nH]c(=O)n2C` the value was 4.91. With `CCn1c(N)c(C(=O)NC)sc1=S`, the IC50 result was “inactive”. `O=C(O)c1ccccc1NS(=O)(=O)c1cccc(-n2sc3ccccc3c2=O)c1`: the pIC50 is 5.26. On the same count and under the same terms, for `c1ccc(OCc2nnc3n2N=C(c2ccccc2)CS3)cc1` the value was 4.77; for `COC(=O)CCC(=O)OC1(C)C(=O)C2=CN(C3CC3)C(c3ccc(OC)cc3)=CC2=C(Br)C1=O` (stereo not given), 5.61; for `CCNc1ccccc1CP(=O)(c1ccccc1)c1ccccc1O` (stereo not given), 5.17.

Regarding `Cc1c(C(=O)N(Cc2ccccc2Cl)C2CCS(=O)(=O)C2)oc2ccccc12` (stereo not given), the pIC50 is 5.36. As for `O=C(Nc1sc2c(c1C(=O)O)CCC2)c1ccc(F)cc1`, the pIC50 was 5.11. Turning to `Cc1ccc(S(=O)(=O)N(C(=O)c2ccncc2)c2ccc(OC(=O)c3ccncc3)c3ccccc23)cc1`, the pIC50 was 4.75. Consider `COc1cc(NC(C)CCc2ccccc2)cc(OC)c1OC` (stereo not given), for which the pIC50 is 5.69.

For the molecule `COc1ccc2nc3cc(Cl)ccc3c(Nc3ccc(O)c(CN4CCN(C)CC4)c3)c2c1`, the IC50 entry is “inactive”. For `CCOc1ccccc1CNc1ccc(O)cc1`, the pIC50 was 4.72. With `COc1ccc(C(=O)/C=C2\Sc3ccccc3N2C)cc1`, the pIC50 is 5.10. Consider `O=[N+]([O-])c1ccc(-[n+]2ccc3ccccc3c2)c([N+](=O)[O-])c1`, for which the pIC50 was 5.08. As for `Cc1cccc(C(=O)Nc2sc3c(c2C(=O)O)CCCC3)c1`, the pIC50 was 5.07. Still for that read-out and setting: for `c1ccc(-c2nc(N3CCOCC3)s[n+]2-c2ccccc2)cc1` the value was 5.40; for `Cc1ccsc1/C=N/NC(=O)c1cccc(S(=O)(=O)Nc2ccccc2Cl)c1`, 4.88.

In the case of `COc1ccc(S(=O)(=O)/N=C2\C=C(Nc3ccc(O)cc3)C(=O)c3ccccc32)cc1`, the IC50 entry is “inactive”. For `Clc1ccc2nc(-c3ccc(Br)s3)cn2c1`, the pIC50 is 5.05.

As to `Cc1cc(C)c(S(=O)(=O)/N=C2/C=C(SCC(=O)O)C(=O)c3ccccc32)cc1C`, the pIC50 was 5.62. On to `O=c1[nH]c2ccc(NCc3ccccc3OCc3ccc(Cl)cc3)cc2[nH]1`, for which the IC50 was > 80 µM (inactive). Consider `CN=c1scc(C)n1/N=C/c1ccc(O)c(O)c1O`, for which the pIC50 is 5.40. `Oc1ccc(-c2cn3c(n2)SCC3)cc1O`: the pIC50 is 4.94.

Take `O=C1NC(=S)NC(=O)C1=Cc1ccc(Br)s1`: the pIC50 is 5.10.

On to `Cc1cc(C)c(S(=O)(=O)Nc2cc(SCC(=O)O)c(O)c3ccccc23)cc1C`, for which the pIC50 was 5.92.

`CCN(CC)c1nc(N)nc(NS(=O)(=O)c2ccc(Cl)cc2)n1`: the pIC50 is 5.21. As for `Cc1cc(C)c2c(=N)c3ccccc3n(CCCCCCCCn3c4ccccc4c(=N)c4c(C)cc(C)nc43)c2n1`, the pIC50 is 5.00. As to `Cn1c2ccccc2c2ccc3c(c21)C(=O)C=CC3=O`, the IC50 was > 80 µM (inactive).

On to `COC1=CC(=O)C=C(OC)C1(O)CC(C)=O`, for which the pIC50 was 5.23.

`Clc1ccc(N=c2ssnc2Cl)nc1`: the IC50 result was “inactive”. In the case of `CN(C)Cc1cc(O)c(CN(C)C)cc1O`, the pIC50 is 5.69.

In the case of `CCC(=O)OCOc1ccc(/C=C2/CCC(CN(C)C)C2=O)cc1` (stereo not given), the pIC50 is 5.16.

In the case of `N#Cc1ccc(N=c2ssnc2Cl)cc1`, the pIC50 is 4.86. The same measure, in the same setting: for `CC(=O)Nc1ccc(S(=O)(=O)/N=C2\C(=O)c3ccccc3C([O-])=C2n2cc[n+](-c3ccccn3)c2)cc1` the value was 4.89; for `Cc1ccc(-n2c(N)c(C(=O)N3CCN(C)CC3)sc2=S)cc1`, 4.80. `O=C(O)c1ccc(-n2c(-c3cc(-c4ccco4)[nH]n3)n[nH]c2=S)cc1`: the IC50 result is “inactive”. In the case of `Cc1cc(O)c(C(C)C)cc1N=Cc1ccccc1[N+](=O)[O-]`, the pIC50 is 5.46. On to `Clc1ccc2nc(-c3ccc4c(c3)OCO4)cn2c1`, for which the IC50 entry was “inactive”. Turning to `COc1cc(-c2nnc3n2N=C(c2ccccc2)CS3)cc(OC)c1OC`, the pIC50 is 5.41. As for `Cc1ccc(NC(=O)c2cc(N3C(=O)C=CC3=O)ccc2N2CCOCC2)cc1Cl`, the pIC50 was 4.91. Regarding `COC(=O)c1cc2c(n1S(=O)(=O)c1ccc(C)cc1)C(=O)C(=O)c1[nH]cc(C(=O)OCc3ccccc3)c1-2`, the negative logarithm of the IC50 (pIC50) is 4.80. `CCS(=O)(=O)N1CCN(c2ccc([N+](=O)[O-])c(NC(C)c3ccccc3)c2)CC1` (stereo not given): the pIC50 was 4.83. On the same count and under the same terms, for `CC1(OC(=O)C2CCCC2)C(=O)C=C2C=C(c3ccsc3)N(CC3CC3)C=C2C1=O` (stereo not given) the value was 5.11. As for `O=C(O)C(Cc1ccccc1)N1C(=O)C=CC1=O` (stereo not given), the pIC50 is 5.22. For the molecule `Cc1cc(C)c2c(=O)n(CC(=O)Nc3ccc(Br)c(C)c3)sc2n1`, the pIC50 was 5.58. With `C=CCOc1ccc(CNc2ccc3[nH]c(=O)[nH]c3c2)cc1OC`, the pIC50 is 5.18. Take `O=C1OC(c2ccc3ccccc3c2O)(c2ccc3ccccc3c2O)c2ccccc21`: the pIC50 is 4.84. In the case of `O=C(CSc1nc2cc(Cl)ccc2s1)c1ccco1`, the pIC50 was 5.22.

Source of the values: PubChem BioAssay AID504765 (Sanford-Burnham Center for Chemical Genomics, 2011).
